Measurements reported in US20080103205A1, “Pesticidal compositions and methods of use” (priority 2006, published 2008).
“Also recorded” adds a separate entry of the source.

How the values were obtained:
[1] = test system: H. megidis; conditions: concentrations up to 200 ug/ml; cited from earlier work
[2] = test system: a variety of nematode species, including Caenorhabditis elegans and Meloidogyne incognita; conditions: 100 ppm; cited from earlier work
[3] = test system: Heterorhabditis bacteriophora; experiment: Toxicity test, infective juveniles (J3) of Heterorhabditis bacteriophora; format: in vivo; conditions: 200 ppm, up to 168 hrs of exposure
Protocol: Toxicity tests were conducted using infective juveniles (J3) of H. bacteriophora collected from infested Galleria mellonella larvae. Test solution (280 ul) was placed in a well of a 96-well plate and 20 ul aqueous solution containing nematodes was added. The nematodes in 20 ul solution ranged from 15 to 21 (n=10). Plates were sealed with Parafilm™ and incubated at room temperature. Similar tests conducted with 0.2% DMSO alone served as controls. Stock solution prepared in DMSO was added to wells to achieve 200 ppm. Nematode mortality was checked at 24, 48, 72, 120, and 168 hr after incubation. Nematodes that were motionless for 30 seconds when observed under stereo microscope were considered dead and included in mortality counts. Each concentration was replicated five times.
This broad cross resistance supports a role for AT blockers in the action of these compounds.

[4] = test system: voltage-gated chloride channels; conditions: cited from earlier work

## CC(C)c1c(O)cc(/C=C/c2ccccc2)cc1O [DST]
[1]
  sensitivity to DST: completely insensitive
[2]
  24 hr lethality: 100%

## CCOP(=S)(OCC)Oc1nc(Cl)c(Cl)cc1Cl [chlorpyrifos]
[3]
  toxicity (FIG. 4): fully susceptible; also recorded: quite active in killing

## Cl[C@H]1[C@H](Cl)[C@@H](Cl)[C@@H](Cl)[C@H](Cl)[C@H]1Cl [lindane]
[4]
  potency as inhibitor of [35S]TBPS binding, Torpedo membranes versus rat brain: about 4 fold
